Results: publication PMC5267425, “Identification of small molecule modulators of HIV-1 Tat and Rev protein accumulation” (Retrovirology, 2017)

Legend:
[1] = system: HIV-1 gene expression in HeLa rtTA HIV∆Mls cells; experiment: HIV-1 gene expression / virion production by p24 antigen ELISA, Dox-inducible provirus; type: cell-based; details: for reduction of HIV-1 viral production relative to DMSO (+Dox): 791 30 µM, 833 2 µM, 892 15 µM, 24 h (Fig. 1); for IC50: Human immunodeficiency virus 1, HeLa
From the text: Effects of compound treatment on HIV-1 gene expression were initially assessed in the context of HeLa rtTA HIV∆Mls cells stably transduced with an inducible Tet-On HIV-1 system (as previously described). The provirus was modified by either deletion in the reverse transcriptase and integrase region of the pol gene by an MlsI restriction digest (HeLa rtTA HIV∆Mls cell line) or GFP fusion to Gag, deleting the PR and RT-coding regions (HeLa rtTA HIVGagGFP cell line). […] All cell lines were maintained in Iscove’s modified Delbecco’s medium (IMDM; Wisent) supplemented with 10% (vol/vol) fetal bovine serum (FBS, Wisent), 1% penicillin/streptomycin (P/S, Wisent) and 0.2% Amphotericin B (Wisent). Indicator cell line CEM-GXR was obtained from Dr. Mark Brockman (Simon Fraser University). The RTI-resistant virus (E00443) was obtained from Dr. Zabrina Brumme (Simon Fraser University). The HIV-1 clade A (97USSN54 (N54)), HIV-1 clade B (IIIB), integrase inhibitor resistant virus (11845), protease inhibitor resistant virus (2948) were obtained through the NIH AIDS Research and Reference reagent program, Division of AIDS, NIAID, NIH).
The compounds used in the treatment assay were obtained from ChemBridge. All compounds were solubilized to 10 mM or 1 mM stock concentrations in dimethyl sulfoxide (DMSO) and stored at −20 °C for subsequent experiments. Cells were incubated for 3–5 h in the presence of the compounds prior to induction with doxycycline (Dox) at a final concentration of 2 μg/mL. 24 h post compound treatment, culture medium was harvested, adjusted to 1% Triton X-100, and incubated at 37 °C for 1 h for p24 antigen ELISA. Cells were harvested in 2 mM EDTA, 1xPBS. RNA was isolated using Aurum Total RNA extraction kits (Bio-Rad), while total protein was extracted with RIPA buffer (1% NP-40, 0.1% SDS, 0.5% sodium deoxycholate, 150 mM NaCl, 50 mM Tris–HCl).
(§1) ELISA for p24 Gag antigen was performed on cell supernatants using kits purchased from Frederick National Laboratory for Cancer Research (Leidos) or XpressBio extended range kit and performed according to manufacturer’s instructions. Protein concentration in cell lysates was quantified by Bradford assay and equal amounts of protein run on 7, 10, 12, or 14% SDS-PAGE, depending on the protein of interest. Following transfer to PVDF (BioRad or Perkin-Elmer), blots were blocked in either 5% Milk-PBS-T (5% Milk, 0.05% Tween-20, 1× PBS) or 3% BSA-PBS-T (3% BSA, 0.05% Tween-20, 1× PBS) prior to incubating with primary antibody (all diluted in 3% BSA-PBS-T). Primary antibodies used were: purified mouse anti-p24 supernatant from anti-HIV-1 Gag hybridoma 183, mouse anti-gp120 hybridoma 902 (NIH AIDS Reagent Program), mouse monoclonal antibody to HIV-1 Rev (Abcam), rabbit polyclonal antibody to HIV-1 Tat (Abcam), mouse monoclonal antibody to p53 (Santa Cruz), rabbit purified IgG for Nap1 (provided by L. Frappier), rabbit polyclonal antibody to GAPDH (Sigma-Aldrich), or mouse monoclonal antibody to α-Tubulin (Sigma-Aldrich). Following incubation with appropriate secondary antibody, blots were visualized by ECL, ECL Plus (Perkin-Elmer), or Clarity Western ECL substrate (BioRad). Quantification of the relative intensity of the detected bands was done using ImageLab software and normalized to corresponding bands of the loading control (GAPDH or α-Tubulin).

[2] = Trypan blue exclusion, PBMCs; type: cell-based, human; details: human, peripheral blood mononuclear cells (PBMCs)
Experimental: To examine the effect of compounds on viral replication, studies were carried out in peripheral blood mononuclear cells (PBMCs). PBMCs were isolated from healthy (HIV-uninfected) volunteer blood donors as described by Dobson-Belaire et al.. Informed consent was obtained from participants in accordance with the guidelines for conduct of clinical research at the University of Toronto and St. Michael’s Hospital, Toronto, Ontario, Canada. Stored PBMCs were thawed, washed with RPMI 1640 complete medium and cultured in RPMI 1640 complete medium containing 2 μg/mL of PHA-L (Sigma-Aldrich) and 20 U/mL of IL-2 (BD Pharmingen) for 72 h. Subsequently, cells were counted and a portion of the cells was separated to another tube for uninfected control treatments. The remaining PBMCs were resuspended in media containing HIV-1 BaL at a multiplicity of infection (MOI) of approximately 0.01 and infected by spinoculation, following which cells were washed twice with room temperature RPMI 1640 complete medium and resuspended to a concentration of 5 × 10^5 cells/mL in complete RPMI 1640 containing 20 U/mL of IL-2. Compounds were added to infected PBMCs or uninfected control PBMCs. Azidothymidine (AZT, Sigma-Aldrich) was used as control treatment at a final concentration of 3.74 μM. On day 4 post infection, culture medium was replenished with the compounds and IL-2 in fresh complete RPMI 1640. On days 2, 4, 6 and 8 post infection, culture supernatant was harvested, virus lysed by adjusting to 1% TritonX-100 and stored at −20 °C for p24 antigen ELISA. A fraction of the culture was harvested to assess percent cell viability by trypan blue exclusion using Glasstic slides (Kova). Relative percent cell viability in compound treated samples versus DMSO-control treated samples was calculated as follows: (total viable cells/total cells)compound/(total viable cells/total cells)DMSO.

HIV-1 MS RNA isoforms = experiment: RT-PCR of splice site usage within HIV-1 MS RNA; type: cell-based; details: for decrease in levels of Rev1/2 and Nef RNAs relative to DMSO / increase of Tat1 and Tat2 RNAs relative to DMSO: 833 2 µM, 892 15 µM
Experimental: The effect of compound treatment on splice site selection within the HIV-1 MS RNA class was analyzed by radioactive RT-PCR as described previously. Radioactive reaction products were resolved on 6% denaturing polyacrylamide gels (8 M Urea, 1xTBE) and detection using a Typhoon 9400 PhosphorImager (Amersham). Gel densitometry was performed using ImageJ software (NIH) to calculate mRNA levels of HIV-1 MS mRNA isoforms, measured as the density of an individual isoform divided by the total density of all visible viral RNA species in a sample.

p53 = experiment: Western blot of p53; type: cell-based; details: 791 30 µM, 833 2 µM, 892 15 µM
Experimental: as §1

SMILES | reduction of HIV-1 viral production relative to DMSO (+Dox) [1] | IC50 [1] [µM] | CC50 [2] [µM] | viability at 6 days post infection ([2]; PBMCs, 6 days post infection, concentrations up to 7.5 µM, read-out: cell viability) [%] | splice site usage within MS RNA relative to control (HIV-1 MS RNA isoforms; 30 µM, 24 h) | p53 expression (p53) | reduction in Gag expression ([1]; 1.5 µM) [%] | decrease in levels of Rev1/2 and Nef RNAs relative to DMSO (HIV-1 MS RNA isoforms) | increase of Tat1 and Tat2 RNAs relative to DMSO (HIV-1 MS RNA isoforms) [%]
Cc1cc(NCc2cccnc2)n2ncc(-c3ccc(Cl)cc3)c2n1 [Compound 791, 3-(4-chlorophenyl)-5-methyl-N-(3-pyridinylmethyl)pyrazolo[1,5-a]pyrimidin-7-amine] | 80–90% | 8.2 | > 10 | > 80 | No significant changes | approximately twofold |  |  | 
O=C(NC(=S)NNC(=O)c1ccccc1O)c1ccc(-c2ccccc2)cc1 [Compound 833, N-([2-(2-hydroxybenzoyl)hydrazino]carbonothioyl}-4-biphenylcarboxamide] | 80–90% | 0.6 | 3 |  |  | no effect | 90 | ~ 30% | < 10
COc1ccc(C=NNC(=O)c2ccccc2O)cc1O [Compound 892, 2-hydroxy-N′-(3-hydroxy-4-methoxybenzylidene)benzohydrazide] | 80–90% | 1.8 | 4.5 |  |  | no effect |  | ~ 30% | < 10
